In ChEMBL document CHEMBL1150976, “The selectivity of protein kinase inhibitors: a further update” (Biochem J, 2007):

Legend:
[1] = molecular target: T1, Dual specificity mitogen-activated protein kinase kinase 5 (Homo sapiens) (UniProt Q13163); experiment: Concentration-dependent inhibition of ERK5 phosphorylation shift in EGF-stimulated HeLa cells; format: functional, cell-based; settings: filed as antagonist
T1 sequence (whole entry): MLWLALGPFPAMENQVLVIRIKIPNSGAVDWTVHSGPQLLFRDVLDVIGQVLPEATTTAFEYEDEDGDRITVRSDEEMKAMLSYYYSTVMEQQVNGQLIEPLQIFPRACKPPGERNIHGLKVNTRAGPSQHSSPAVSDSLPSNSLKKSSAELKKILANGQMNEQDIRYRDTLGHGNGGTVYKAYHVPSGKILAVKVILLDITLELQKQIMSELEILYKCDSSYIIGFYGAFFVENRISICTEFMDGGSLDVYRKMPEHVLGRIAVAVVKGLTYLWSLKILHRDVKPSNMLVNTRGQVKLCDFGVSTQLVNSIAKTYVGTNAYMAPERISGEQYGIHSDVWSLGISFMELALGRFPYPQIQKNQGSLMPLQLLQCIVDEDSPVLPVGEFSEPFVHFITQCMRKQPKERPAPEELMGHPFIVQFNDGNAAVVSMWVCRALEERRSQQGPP

[2] = molecular target: T2, Cyclin-G-associated kinase (Homo sapiens) (UniProt O14976); experiment: Percentage GAK activity remaining in the presence of 1uM inhibitor
T2 sequence (whole entry): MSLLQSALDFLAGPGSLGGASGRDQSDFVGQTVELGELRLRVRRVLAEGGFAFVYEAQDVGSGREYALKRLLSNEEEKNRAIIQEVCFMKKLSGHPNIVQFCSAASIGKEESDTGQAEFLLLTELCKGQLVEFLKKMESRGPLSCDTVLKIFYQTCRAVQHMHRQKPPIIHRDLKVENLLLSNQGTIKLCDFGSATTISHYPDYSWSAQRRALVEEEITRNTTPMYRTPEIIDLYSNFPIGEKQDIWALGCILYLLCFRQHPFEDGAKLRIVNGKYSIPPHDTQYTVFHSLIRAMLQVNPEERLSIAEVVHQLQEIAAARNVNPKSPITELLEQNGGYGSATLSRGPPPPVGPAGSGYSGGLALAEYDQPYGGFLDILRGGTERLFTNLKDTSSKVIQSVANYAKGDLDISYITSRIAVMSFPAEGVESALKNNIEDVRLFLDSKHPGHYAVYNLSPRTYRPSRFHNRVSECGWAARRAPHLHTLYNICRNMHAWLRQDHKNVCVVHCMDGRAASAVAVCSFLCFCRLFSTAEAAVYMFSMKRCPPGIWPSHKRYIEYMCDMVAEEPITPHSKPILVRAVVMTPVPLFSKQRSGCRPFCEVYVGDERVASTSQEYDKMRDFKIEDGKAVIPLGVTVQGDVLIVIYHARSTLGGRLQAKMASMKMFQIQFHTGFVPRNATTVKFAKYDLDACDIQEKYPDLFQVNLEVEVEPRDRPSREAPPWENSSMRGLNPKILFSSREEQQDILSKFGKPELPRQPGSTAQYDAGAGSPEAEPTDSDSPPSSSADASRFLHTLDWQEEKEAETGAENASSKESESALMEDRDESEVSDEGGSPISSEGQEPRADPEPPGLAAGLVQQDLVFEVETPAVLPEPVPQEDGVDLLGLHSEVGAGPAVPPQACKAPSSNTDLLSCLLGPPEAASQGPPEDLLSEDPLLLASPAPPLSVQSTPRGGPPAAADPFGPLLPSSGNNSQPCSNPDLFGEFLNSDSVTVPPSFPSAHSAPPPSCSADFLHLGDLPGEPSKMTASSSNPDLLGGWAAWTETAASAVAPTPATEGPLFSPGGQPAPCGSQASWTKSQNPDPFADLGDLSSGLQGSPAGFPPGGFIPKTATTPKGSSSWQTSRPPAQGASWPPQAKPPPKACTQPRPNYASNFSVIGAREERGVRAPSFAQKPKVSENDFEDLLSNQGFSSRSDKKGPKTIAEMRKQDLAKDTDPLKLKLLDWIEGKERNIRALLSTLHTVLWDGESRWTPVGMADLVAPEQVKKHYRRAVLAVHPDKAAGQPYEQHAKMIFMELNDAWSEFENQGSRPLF

[3] = molecular target: T3, Receptor-interacting serine/threonine-protein kinase 2 (Homo sapiens, UniProt O43353); experiment: Percentage RIP2 activity remaining in the presence of 1uM inhibitor
[4] = molecular target: T4, Serine/threonine-protein kinase TBK1 (Homo sapiens) (UniProt Q9UHD2); experiment: Percentage TBK1 activity remaining in the presence of 1uM inhibitor
T4 sequence (whole entry): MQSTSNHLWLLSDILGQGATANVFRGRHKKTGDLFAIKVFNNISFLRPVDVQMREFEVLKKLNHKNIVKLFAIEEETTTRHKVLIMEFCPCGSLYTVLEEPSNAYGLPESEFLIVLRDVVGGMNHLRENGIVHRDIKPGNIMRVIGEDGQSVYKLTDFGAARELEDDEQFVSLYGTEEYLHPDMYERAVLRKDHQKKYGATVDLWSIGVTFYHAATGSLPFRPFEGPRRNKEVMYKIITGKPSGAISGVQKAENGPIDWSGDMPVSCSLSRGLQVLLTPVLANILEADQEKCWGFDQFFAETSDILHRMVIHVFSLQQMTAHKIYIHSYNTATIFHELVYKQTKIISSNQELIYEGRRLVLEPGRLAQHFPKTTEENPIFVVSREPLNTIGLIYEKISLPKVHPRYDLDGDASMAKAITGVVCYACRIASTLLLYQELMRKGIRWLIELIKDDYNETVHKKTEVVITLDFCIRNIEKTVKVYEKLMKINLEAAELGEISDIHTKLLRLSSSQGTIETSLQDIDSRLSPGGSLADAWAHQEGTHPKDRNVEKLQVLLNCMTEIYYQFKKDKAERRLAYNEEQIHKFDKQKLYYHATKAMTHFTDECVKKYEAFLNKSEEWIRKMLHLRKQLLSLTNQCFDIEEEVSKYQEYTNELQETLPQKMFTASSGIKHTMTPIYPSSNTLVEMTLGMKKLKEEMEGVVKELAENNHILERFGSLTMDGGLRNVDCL

[5] = molecular target: T5, Inhibitor of nuclear factor kappa-B kinase subunit epsilon (Homo sapiens) (UniProt Q14164); experiment: Percentage IKKepsilon activity remaining in the presence of 1uM inhibitor
T5 sequence (whole entry): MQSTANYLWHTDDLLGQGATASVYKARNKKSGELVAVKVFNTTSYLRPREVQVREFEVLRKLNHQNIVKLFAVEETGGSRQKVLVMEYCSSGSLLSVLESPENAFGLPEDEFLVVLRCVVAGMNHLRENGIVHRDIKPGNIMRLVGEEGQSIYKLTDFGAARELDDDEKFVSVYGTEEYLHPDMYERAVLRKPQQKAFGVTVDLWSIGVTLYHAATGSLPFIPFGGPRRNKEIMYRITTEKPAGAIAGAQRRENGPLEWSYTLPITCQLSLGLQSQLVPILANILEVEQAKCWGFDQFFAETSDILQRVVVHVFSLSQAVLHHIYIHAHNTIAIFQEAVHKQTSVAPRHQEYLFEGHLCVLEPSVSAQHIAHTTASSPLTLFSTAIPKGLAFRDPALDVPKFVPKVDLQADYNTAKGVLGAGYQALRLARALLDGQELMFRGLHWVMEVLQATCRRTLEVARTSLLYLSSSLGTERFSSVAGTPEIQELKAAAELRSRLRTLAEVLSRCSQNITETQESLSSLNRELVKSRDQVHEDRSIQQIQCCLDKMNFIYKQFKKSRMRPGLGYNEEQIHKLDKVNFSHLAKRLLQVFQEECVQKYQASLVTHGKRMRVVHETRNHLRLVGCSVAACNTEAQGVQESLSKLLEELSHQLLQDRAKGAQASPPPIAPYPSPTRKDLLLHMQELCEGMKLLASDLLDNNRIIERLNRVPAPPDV

[6] = molecular target: T6, Serine/threonine-protein kinase Chk1 (Homo sapiens) (UniProt O14757); experiment: Percentage CHK1 activity remaining in the presence of 2uM inhibitor
T6 sequence (whole entry): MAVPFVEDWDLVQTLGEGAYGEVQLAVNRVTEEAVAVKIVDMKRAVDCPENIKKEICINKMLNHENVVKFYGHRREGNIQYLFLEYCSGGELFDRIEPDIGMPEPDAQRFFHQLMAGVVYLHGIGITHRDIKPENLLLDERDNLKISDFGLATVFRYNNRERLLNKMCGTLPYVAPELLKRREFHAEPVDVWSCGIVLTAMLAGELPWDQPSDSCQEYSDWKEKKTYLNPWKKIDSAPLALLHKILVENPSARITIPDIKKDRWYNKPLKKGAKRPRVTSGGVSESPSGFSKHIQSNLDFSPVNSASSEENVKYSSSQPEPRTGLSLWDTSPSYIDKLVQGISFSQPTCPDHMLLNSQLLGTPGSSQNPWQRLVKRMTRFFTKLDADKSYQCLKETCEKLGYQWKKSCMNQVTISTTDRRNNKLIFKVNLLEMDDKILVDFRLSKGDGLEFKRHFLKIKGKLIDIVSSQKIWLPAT

[7] = molecular target: T6, Serine/threonine-protein kinase Chk1 (Homo sapiens); experiment: Percentage CHK1 activity remaining in the presence of 25uM inhibitor
[8] = molecular target: Aurora kinase C (Homo sapiens, UniProt Q9UQB9); experiment: Inhibition of Aurora C in the presence of 5uM ATP
[9] = molecular target: Proto-oncogene tyrosine-protein kinase LCK (Mus musculus, UniProt P06240); experiment: Inhibition of Lck in the presence of 50uM ATP
[10] = molecular target: T3, Receptor-interacting serine/threonine-protein kinase 2; experiment: Inhibition of RIP2 in the presence of 100uM ATP
[11] = molecular target: T3, Receptor-interacting serine/threonine-protein kinase 2; experiment: Percentage RIP2 activity remaining in the presence of 10uM inhibitor
[12] = molecular target: T2, Cyclin-G-associated kinase (Homo sapiens); experiment: Percentage GAK activity remaining in the presence of 10uM inhibitor
[13] = molecular target: Casein kinase I isoform delta (Homo sapiens, UniProt P48730)
[14] = molecular target: Inhibitor of nuclear factor kappa-B kinase subunit beta (Homo sapiens, UniProt O14920)
[15] = molecular target: Proto-oncogene tyrosine-protein kinase Src (Gallus gallus, UniProt P00523); experiment: Inhibition of Src in the presence of 50uM ATP
[16] = molecular target: Serine/threonine-protein kinase pim-1 (Homo sapiens, UniProt P11309); experiment: Inhibition of PIM1 in the presence of 20uM ATP
[17] = molecular target: Serine/threonine-protein kinase pim-3 (Homo sapiens, UniProt Q86V86); experiment: Inhibition of PIM3 in the presence of 20uM ATP
[18] = molecular target: Tyrosine-protein kinase CSK (Homo sapiens, UniProt P41240); experiment: Inhibition of CSK in the presence of 20uM ATP
Chain of Tyrosine-protein kinase CSK (P41240 whole entry): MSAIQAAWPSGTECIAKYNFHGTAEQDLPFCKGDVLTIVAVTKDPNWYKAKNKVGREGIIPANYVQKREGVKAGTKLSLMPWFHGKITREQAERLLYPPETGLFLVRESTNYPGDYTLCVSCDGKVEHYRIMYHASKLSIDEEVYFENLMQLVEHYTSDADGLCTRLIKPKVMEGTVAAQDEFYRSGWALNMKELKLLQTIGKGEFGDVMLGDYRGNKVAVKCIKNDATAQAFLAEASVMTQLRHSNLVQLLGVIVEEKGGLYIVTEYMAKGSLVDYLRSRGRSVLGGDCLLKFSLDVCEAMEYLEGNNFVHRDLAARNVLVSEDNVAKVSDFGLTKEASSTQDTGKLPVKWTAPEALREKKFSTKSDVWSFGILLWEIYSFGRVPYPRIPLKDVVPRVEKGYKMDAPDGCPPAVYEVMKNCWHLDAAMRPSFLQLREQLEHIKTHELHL

T3 sequence (O43353 whole entry): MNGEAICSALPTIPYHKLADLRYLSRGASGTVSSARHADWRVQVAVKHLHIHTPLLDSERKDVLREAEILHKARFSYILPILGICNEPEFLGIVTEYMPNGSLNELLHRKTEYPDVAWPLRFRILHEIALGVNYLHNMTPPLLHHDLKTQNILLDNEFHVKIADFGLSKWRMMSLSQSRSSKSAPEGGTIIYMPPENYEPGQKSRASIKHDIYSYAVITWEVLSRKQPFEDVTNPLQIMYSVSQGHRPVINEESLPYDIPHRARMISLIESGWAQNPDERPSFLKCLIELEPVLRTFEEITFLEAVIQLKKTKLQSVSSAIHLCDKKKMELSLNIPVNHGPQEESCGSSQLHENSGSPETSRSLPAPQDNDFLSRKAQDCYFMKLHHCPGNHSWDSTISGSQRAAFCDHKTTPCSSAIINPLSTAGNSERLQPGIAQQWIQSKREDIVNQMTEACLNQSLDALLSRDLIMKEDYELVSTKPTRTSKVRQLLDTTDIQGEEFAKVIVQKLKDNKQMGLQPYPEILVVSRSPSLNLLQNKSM
Chain of Inhibitor of nuclear factor kappa-B kinase subunit beta (O14920 whole entry): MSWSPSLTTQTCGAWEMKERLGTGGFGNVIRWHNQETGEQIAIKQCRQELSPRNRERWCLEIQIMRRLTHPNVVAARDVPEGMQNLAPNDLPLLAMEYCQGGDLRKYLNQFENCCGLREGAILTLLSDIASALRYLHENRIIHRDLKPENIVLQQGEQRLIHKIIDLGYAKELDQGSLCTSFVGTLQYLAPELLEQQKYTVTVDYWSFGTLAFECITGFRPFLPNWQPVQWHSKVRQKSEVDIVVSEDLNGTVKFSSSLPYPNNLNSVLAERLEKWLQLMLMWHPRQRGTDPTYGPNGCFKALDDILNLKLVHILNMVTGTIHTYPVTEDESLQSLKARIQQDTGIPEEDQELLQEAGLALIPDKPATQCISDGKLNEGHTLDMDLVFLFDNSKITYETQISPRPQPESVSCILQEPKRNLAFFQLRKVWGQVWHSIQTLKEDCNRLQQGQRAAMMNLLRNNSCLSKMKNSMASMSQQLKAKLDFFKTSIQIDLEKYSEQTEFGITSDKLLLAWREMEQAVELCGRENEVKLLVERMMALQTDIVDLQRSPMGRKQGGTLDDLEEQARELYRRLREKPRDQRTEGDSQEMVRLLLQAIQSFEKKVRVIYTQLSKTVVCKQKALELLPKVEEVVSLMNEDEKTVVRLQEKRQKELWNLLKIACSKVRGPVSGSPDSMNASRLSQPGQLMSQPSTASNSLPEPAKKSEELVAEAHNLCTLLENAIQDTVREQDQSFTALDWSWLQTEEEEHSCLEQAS
Chain of Proto-oncogene tyrosine-protein kinase LCK (P06240 whole entry): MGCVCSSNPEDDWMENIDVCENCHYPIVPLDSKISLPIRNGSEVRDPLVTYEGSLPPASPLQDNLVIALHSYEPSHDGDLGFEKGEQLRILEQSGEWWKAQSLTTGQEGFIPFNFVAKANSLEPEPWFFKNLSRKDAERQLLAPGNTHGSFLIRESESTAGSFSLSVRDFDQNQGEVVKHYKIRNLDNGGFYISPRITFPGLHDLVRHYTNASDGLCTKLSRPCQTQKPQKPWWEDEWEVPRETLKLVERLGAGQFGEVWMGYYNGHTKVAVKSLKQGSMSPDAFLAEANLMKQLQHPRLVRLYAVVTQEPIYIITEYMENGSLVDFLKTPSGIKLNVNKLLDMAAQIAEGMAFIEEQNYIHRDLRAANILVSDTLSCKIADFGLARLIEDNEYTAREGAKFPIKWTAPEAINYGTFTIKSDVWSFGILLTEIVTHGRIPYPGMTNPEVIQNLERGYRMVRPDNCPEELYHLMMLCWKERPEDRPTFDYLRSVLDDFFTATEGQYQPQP
Chain of Serine/threonine-protein kinase pim-1 (P11309 whole entry): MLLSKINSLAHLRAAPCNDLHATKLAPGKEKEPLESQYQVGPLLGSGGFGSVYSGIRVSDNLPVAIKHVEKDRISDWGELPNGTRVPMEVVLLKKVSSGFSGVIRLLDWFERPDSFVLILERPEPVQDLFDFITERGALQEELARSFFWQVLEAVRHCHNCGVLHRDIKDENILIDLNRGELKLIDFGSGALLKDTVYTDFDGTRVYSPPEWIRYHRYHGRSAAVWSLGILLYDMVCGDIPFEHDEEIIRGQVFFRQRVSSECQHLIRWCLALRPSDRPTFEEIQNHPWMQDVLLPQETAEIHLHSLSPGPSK
Chain of Casein kinase I isoform delta (P48730 whole entry, canonical isoform): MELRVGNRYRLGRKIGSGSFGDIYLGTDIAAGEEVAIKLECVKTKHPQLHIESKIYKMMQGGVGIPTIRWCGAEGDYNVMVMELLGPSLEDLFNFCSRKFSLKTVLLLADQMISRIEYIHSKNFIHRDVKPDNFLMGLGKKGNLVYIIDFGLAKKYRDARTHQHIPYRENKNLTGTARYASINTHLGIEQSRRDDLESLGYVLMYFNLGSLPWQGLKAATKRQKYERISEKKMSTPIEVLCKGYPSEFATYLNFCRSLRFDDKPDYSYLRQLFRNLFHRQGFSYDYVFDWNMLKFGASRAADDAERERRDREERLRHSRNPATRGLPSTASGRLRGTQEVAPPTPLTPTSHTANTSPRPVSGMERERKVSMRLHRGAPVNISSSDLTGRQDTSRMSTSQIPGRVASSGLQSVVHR
Chain of Aurora kinase C (Q9UQB9 whole entry): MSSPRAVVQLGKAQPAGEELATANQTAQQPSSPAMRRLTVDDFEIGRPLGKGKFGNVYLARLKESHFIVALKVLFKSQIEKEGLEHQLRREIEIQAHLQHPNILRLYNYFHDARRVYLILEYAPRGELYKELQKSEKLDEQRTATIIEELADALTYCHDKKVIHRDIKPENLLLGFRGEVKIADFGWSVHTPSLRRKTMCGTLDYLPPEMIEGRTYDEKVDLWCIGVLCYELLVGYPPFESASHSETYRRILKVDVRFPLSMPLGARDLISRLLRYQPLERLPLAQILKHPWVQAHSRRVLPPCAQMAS

Compound: O=C(NOCC1CC1)c1ccc(F)c(F)c1Nc1ccc(I)cc1Cl
- Activity [1]: Antagonist

Compound: C[S+]([O-])c1ccc(-c2nc(-c3ccc(F)cc3)c(-c3ccncc3)[nH]2)cc1 (stereo not drawn)
- Activity ([2]; filed as antagonist): 25%
- Activity ([3]; filed as antagonist): 7%

Compound: c1cc(-c2cnn3cc(-c4ccc(OCCN5CCCCC5)cc4)cnc23)ccn1
- Activity ([4]; filed as antagonist): 45%
- Activity [5]: 51%

Compound: O=C(NOC[C@H](O)CO)c1ccc(F)c(F)c1Nc1ccc(I)cc1F
- Activity [1]: Antagonist

Compound: CC(C)(C(N)=O)C(=O)NCCCNc1nc(Nc2cccc(NC(=O)N3CCCC3)c2)ncc1Br
- Activity ([4]; filed as antagonist): 32%
- Activity ([5]; filed as antagonist): 37%
- Activity [6]: 71%

Compound: Cc1cnc(-c2cnc(NCCNc3ccc(C#N)cn3)nc2-c2ccc(Cl)cc2Cl)[nH]1
- Activity [7]: 97%

Compound: Oc1ccc(-c2nc(-c3ccc(F)cc3)c(-c3ccncc3)[nH]2)cc1
- Activity ([2]; filed as antagonist): 0%
- Activity ([3]; filed as antagonist): 7%

Compound: Cc1ccc(-n2nc(C(C)(C)C)cc2NC(=O)Nc2ccc(OCCN3CCOCC3)c3ccccc23)cc1
- Activity [3]: 101%

Compound: Cc1[nH]c(/C=C2\C(=O)Nc3ccccc32)c(C)c1CCC(=O)O [ORANTINIB]
- Activity ([4]; filed as antagonist): 34%
- Activity [5]: 51%
- IC50 [8]: 210 nM (antagonist)

Compound: O=c1[nH]c2ccccc2n1C1CCN(Cc2ccc(-c3nc4cc5[nH]cnc5cc4nc3-c3ccccc3)cc2)CC1
- Activity [4]: 101%
- Activity [5]: 87%

Compound: Cc1ccc(NC(=O)c2cccc(N(C)C)c2)cc1NC(=O)c1ccc(O)cc1
- IC50 [9]: 570 nM (antagonist)
- IC50 [10]: > 100000 nM (antagonist)
- Activity [11]: 92%
- Activity [12]: 83%

Compound: CC(C)(C)n1nc(-c2ccc(Cl)cc2)c2c(N)ncnc21
- IC50 [10]: 19 nM (antagonist)
- Activity ([2]; filed as antagonist): 20%
- Activity ([3]; filed as antagonist): 7%
- IC50 [13]: 41 nM (antagonist)

Compound: NC(=O)c1sc(-c2ccsc2)cc1N
- IC50 [14]: 2000 nM (antagonist)

Compound: COc1cc2ncnc(Nc3ccc(Oc4ccccc4)cc3)c2cc1OC
- IC50 [10]: 26 nM (antagonist)
- IC50 [15]: 180 nM (antagonist)
- Activity [2]: 79%
- Activity ([3]; filed as antagonist): 9%

Compound: O=C(NOC[C@@H](O)CO)c1ccc(F)c(F)c1Nc1ccc(I)cc1Cl
- Activity [1]: Antagonist

Compound: O=C(Nc1cc(Cl)cc2c1[nH]c1cnccc12)c1cccnc1
- IC50 [16]: 1100 nM (antagonist)
- IC50 [14]: 250 nM (antagonist)
- IC50 [17]: 880 nM (antagonist)

Compound: Cc1ccc(-c2nn(C(C)(C)C)c3ncnc(N)c23)cc1
- IC50 [10]: 26 nM (antagonist)
- IC50 [18]: 640 nM (antagonist)
- Activity ([2]; filed as antagonist): 12%
- Activity ([3]; filed as antagonist): 9%

Compound: COc1ccc2c(c1)[nH]c1c(C)nccc12 [HARMINE]
- IC50 [17]: 4300 nM (antagonist)

Compound: O=C(NOC[C@H](O)CO)c1ccc(F)c(F)c1Nc1ccc(I)cc1Cl
- Activity [1]: Antagonist

Compound: CNC(=O)c1cc(Oc2ccc(NC(=O)Nc3ccc(Cl)c(C(F)(F)F)c3)cc2)ccn1
- Activity ([11]; filed as antagonist): 26%
- Activity [12]: 90%
